# Data reported in patent US8129406B2, “Nonpeptide inhibitors of matrix metalloproteinases” (Southern Research Institute, priority 2004, dated 2012).
# Experiments:
# [1] = target: T1, MMP-2 (Homo sapiens, UniProt P08253); test: Enzyme inhibition assay, fluorometric substrate degradation, MMP-2; assay type: biochemical; conditions: purified human rMMP-2, fluorogenic substrate; read-out: Inhibition Potencies, IC50, MMP-2
# T1 construct: Human rMMP-2 and -9 were purified in active forms; made in house
# T1 sequence (P08253 110-660): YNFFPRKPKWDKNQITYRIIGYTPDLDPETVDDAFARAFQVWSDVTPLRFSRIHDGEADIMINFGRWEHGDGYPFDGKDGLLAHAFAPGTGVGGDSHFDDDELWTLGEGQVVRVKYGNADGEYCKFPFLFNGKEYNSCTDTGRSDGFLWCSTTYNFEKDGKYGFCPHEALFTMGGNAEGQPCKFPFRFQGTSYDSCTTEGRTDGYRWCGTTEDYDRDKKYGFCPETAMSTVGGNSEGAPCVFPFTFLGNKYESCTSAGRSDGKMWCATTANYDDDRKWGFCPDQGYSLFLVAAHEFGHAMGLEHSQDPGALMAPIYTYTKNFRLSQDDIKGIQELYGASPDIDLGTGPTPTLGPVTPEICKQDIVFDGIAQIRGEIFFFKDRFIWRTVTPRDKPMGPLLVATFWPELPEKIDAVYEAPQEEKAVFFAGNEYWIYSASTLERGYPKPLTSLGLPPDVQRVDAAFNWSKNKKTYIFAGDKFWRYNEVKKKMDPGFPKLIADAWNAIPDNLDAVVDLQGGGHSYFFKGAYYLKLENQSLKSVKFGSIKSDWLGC
# Experimental: (§1) For kinetic studies, a standard fluorimetric assay based on hydrolysis of fluorogenic synthetic substrate (1 μM of McaPLGLDpaAR) was used. […] Both concentration and time-dependent cleavage were monitored. Controls included trypsin (non-specific cleavage) and bacterial collagenase (total cleavage) and other zinc-protease (ACE, endopeptidase). […] The IC50 values were converted to Ki values using the equation, Ki=IC50/(1+S/Km). […] Inhibition kinetics of various MMPs were also determined using substrate-degradation ELISA kits from Chemicon (Temecula, Calif.). See C.
# (§2) Substrate specificity for MMP-1, -2, and -9 was assessed by degradation of labeled-collagen I and IV. […] Inhibitory potency and selectivity was also analyzed using a gelatin or collagen zymography followed by densitometric analysis. Labeled collagen I or IV degradation assay (zymography) was used for M-1, -2 and -9 activities and their inhibition. Bacterial collagenase and EDTA (10 mM) was included as positive and negative controls. In situ zymography film technique was also used for measurement of MMP-2 and MMP-9 (gelatinolytic) activities and their inhibition by drug treatment in target cells and tissue samples.
# [2] = test system: HT-1080B; test: Amgel human tumor angiogenesis bioassay, HT-1080B; assay type: cell-based; conditions: 72 hours incubation at 50-100 μM
# Experimental: (§3) Human tumor angiogenesis bioassay: Angiogenesis was induced by coculture of human endothelial cells (HUVECs) with tumor cells or defined angiogenic factor (FGF). Tumor cells media (from 24-hour serum-free cultures) were used to induce a biological angiogenic response using human glioma cell lines producing different concentrations of VEGF or by using purified factors such as 20 μM FGF. Endothelial cells were seeded onto Amgel-coated filters and induced with a angiogenic media+/−candidate MMP inhibitors. Varying concentrations of test compounds (0.5-500 μM) and incubation times (1-7 days) were applied, and endothelial cell differentiation (sprouting and tubule-like capillary formation) were examined by light microscopy and a computerized digital system.
# (§4) Evaluation of the compounds 1c and 2c in Amgel human tumor invasion and angiogenesis models (72 hours incubation at 50-100 μM) was performed using two human HT-1080 cancer cell sublines (HT-1080-B and HT-1080-R). The results of these assays with compound 2c are shown in Table 2 and FIG. 1 (data for compound 1 c not shown).
# [3] = test system: HT-1080B; test: Amgel human tumor cell invasion bioassay, HT-1080B; assay type: cell-based; conditions: 72 hours incubation at 50-100 μM
# Experimental: (§5) Human tumor cell invasion bioassay: Amgel-coated filters (8 μm) were used as tissue biomatrix barriers placed between Lucite chambers. Labeled cells (50,000) were seeded onto reconstituted-Amgel filters (75 μg) and the lower chambers were filled with media containing 5% dialyzed serum. Test compounds (0.5-100 μM) were added and incubated for 72 hours. Contents from the lower chamber were collected to resolve cell-bound and free radioactivity. See G. Siegal, et al., Cancer Lett. 1993, 69, 123-132; L. Goodly, et al., Tumor Biology 1994, 15, 326-336; M. Ikeda, et al., Clin. Cancer. Res. 2000, 6, 3290-3296; R. Singh, et al., In Vitro Cell Develop. Biol., 2002, 38, 11.
# as §4
# [4] = test system: HF; test: Amgel human tumor angiogenesis bioassay, HF; assay type: cell-based; conditions: 72 hours incubation at 50-100 μM
# Experimental: as §3, §4
# [5] = test system: HT-1080R; test: Amgel human tumor angiogenesis bioassay, HT-1080R; assay type: cell-based; conditions: 72 hours incubation at 50-100 μM
# Experimental: as §3, §4
# [6] = target: T2, MMP-9 (Homo sapiens, UniProt P14780); test: Enzyme inhibition assay, fluorometric substrate degradation, MMP-9; assay type: biochemical; conditions: purified human rMMP-9, fluorogenic substrate; read-out: Inhibition Potencies, IC50, MMP-9
# T2 construct: Human rMMP-2 and -9 were purified in active forms; made in house
# T2 sequence (P14780 107-707 limits assumed): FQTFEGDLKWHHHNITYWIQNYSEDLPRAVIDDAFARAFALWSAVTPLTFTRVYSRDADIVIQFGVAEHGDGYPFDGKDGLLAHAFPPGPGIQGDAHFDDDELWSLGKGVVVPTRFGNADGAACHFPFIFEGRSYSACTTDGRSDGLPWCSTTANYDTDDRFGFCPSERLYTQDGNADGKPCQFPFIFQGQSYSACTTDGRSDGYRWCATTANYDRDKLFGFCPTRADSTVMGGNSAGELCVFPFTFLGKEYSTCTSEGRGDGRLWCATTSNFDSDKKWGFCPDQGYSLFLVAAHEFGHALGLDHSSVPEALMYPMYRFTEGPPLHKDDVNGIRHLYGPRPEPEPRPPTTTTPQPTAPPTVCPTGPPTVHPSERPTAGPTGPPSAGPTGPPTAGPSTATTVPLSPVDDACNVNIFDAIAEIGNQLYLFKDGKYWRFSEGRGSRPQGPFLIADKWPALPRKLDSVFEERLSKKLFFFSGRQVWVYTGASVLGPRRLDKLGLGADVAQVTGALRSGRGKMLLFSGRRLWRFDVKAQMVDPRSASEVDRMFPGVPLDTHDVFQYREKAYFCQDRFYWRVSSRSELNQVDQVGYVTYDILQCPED
# Experimental: as §1, §2
# [7] = target: T3, MMP-3 (Homo sapiens, UniProt P08254); test: Enzyme inhibition assay, fluorometric substrate degradation, MMP-3; assay type: biochemical; conditions: Minienzyme used; read-out: Inhibition Potencies, IC50, MMP-3
# T3 construct: purchased Chemicon
# T3 sequence (P08254 100-477, species assumed): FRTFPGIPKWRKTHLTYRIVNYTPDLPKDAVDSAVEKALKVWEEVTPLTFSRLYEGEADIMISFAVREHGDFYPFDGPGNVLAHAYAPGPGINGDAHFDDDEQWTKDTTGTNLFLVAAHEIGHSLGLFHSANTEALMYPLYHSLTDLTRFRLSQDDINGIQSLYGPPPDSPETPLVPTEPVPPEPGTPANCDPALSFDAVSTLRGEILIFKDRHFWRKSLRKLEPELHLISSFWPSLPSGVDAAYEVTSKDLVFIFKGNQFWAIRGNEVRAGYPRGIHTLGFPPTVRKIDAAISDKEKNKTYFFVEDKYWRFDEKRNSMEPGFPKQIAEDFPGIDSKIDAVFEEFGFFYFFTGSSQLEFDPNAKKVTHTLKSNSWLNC
# Experimental: (§6) Human rMMP-2 and -9 were purified in active forms, and purified MMP-1, -3 and -13 were obtained from commercial sources (Chemicon; Temecula, Calif.) in zymogen form and were activated by 1 mM APMA or PCMB treatment (2 hrs at 37° C.). For kinetic studies, a standard fluorimetric assay based on hydrolysis of fluorogenic synthetic substrate (1 μM of McaPLGLDpaAR) was used. For each assay, target MMP (1 μM) and increasing concentrations of test compound were incubated at 25° C. for 30-60 min and the rate of substrate hydrolysis was measured by Perkin-Elmer fluorometer at an excitation 328 nm and an emission 393 nm settings. Both concentration and time-dependent cleavage were monitored. Controls included trypsin (non-specific cleavage) and bacterial collagenase (total cleavage) and other zinc-protease (ACE, endopeptidase). IC50 values (the concentration at which 50% enzyme activity is inhibited) were determined by plots of % activity versus negative log of agent concentration. The IC50 values were converted to Ki values using the equation, Ki=IC50/(1+S/Km). The Km values (μM) were calculated from the […] values of 3-5 separate experiments. Inhibition kinetics of various MMPs were also determined using substrate-degradation ELISA kits from Chemicon (Temecula, Calif.). See C. Knight, et al., FEBS Lett., 1992, 296, 263-266; L. Windsor, et al., Biochem. Biophys. Acta […], 1334, 261-272, which are incorporated by reference herein for their teachings of enzyme inhibition assays.
# MMP inhibitor selectivity determinations: Both quantitative labeled-substrate and FITC-biopeptide (matrix-specific) assays were used to examine the selective inhibition of MMP activities. Substrate specificity for MMP-1, -2, and -9 was assessed by degradation of labeled-collagen I and IV. Typically, MMP-dependent biomatrix degradation was monitored in the presence and absence of candidate compounds (0.5-500 μm) after 60-90 min incubations. Inhibitory potency and selectivity was also analyzed using a gelatin or collagen zymography followed by densitometric analysis. […]
# [8] = test system: nontumorigenic human fibroblasts cells (HF); test: Functional evaluation in Amgel models, nontumorigenic fibroblasts; assay type: cell-based
# [9] = Cell proliferation and cell viability at the tested concentrations; assay type: cell-based; conditions: at the tested concentrations (data not shown)
# [10] = target: Endopeptidase; test: Enzyme inhibition assay, endopeptidase (other zinc-protease control); assay type: biochemical; conditions: for IC50: read-out: Inhibition Potencies, IC50, Endopeptidase
# Experimental: as §6
# [11] = test system: HF; test: Amgel human tumor cell invasion bioassay, HF; assay type: cell-based; conditions: 72 hours incubation at 50-100 μM
# [12] = test system: HT-1080R; test: Amgel human tumor cell invasion bioassay, HT-1080R; assay type: cell-based; conditions: 72 hours incubation at 50-100 μM
# Experimental: as §5, §4
Structure (SMILES),melting point [°C],IC50 [1] [nM],"% Inhibition, Tumor angiogenesis [2] [%]","% Inhibition, Tumor invasion [3] [%]","% Inhibition, Tumor angiogenesis [4]","% Inhibition, Tumor angiogenesis [5] [%]",IC50 [6] [nM],IC50 [7] [nM],effect on nontumorigenic human fibroblasts cells (HF) [8],effect on cell proliferation [9],effect on cell viability [9],IC50 [10] [nM],"% Inhibition, Tumor invasion [11]","% Inhibition, Tumor invasion [12] [%]","Inhibition Potencies, IC50, Endopeptidase [10]"
"O=C(NO)[C@@H]1CCCC[C@H]1NS(=O)(=O)c1ccc(-c2ccccc2)cc1 (racemic) [compound 2c, (trans)-N-Hydroxy-2-[[(4-Biphenyl)sulfonyl]amino]cyclohexanecarbox-amide]",212 to 214,125,45 ± 4,50 ± 8,No effect,40 ± 6,145,> 3000,neither compound 1c nor compound 2c had any effect,no effect,no effect,> 20000,No effect,60 ± 5,
"O=C(NO)[C@@H]1CCCC[C@@H]1NS(=O)(=O)c1ccc(-c2ccccc2)cc1 (racemic) [compound 1c, (cis)-N-Hydroxy-2-[[(4-Biphenyl)sulfonyl]amino]cyclohexanecarboxamide]",74 to 76,150,,,,,175,> 3000,neither compound 1c nor compound 2c had any effect,no effect,no effect,> 20000,,,
"CNC(=O)[C@H](Cc1c[nH]c2ccccc12)NC(=O)[C@@H](CC(=O)NO)CC(C)C [GM-6001, reference compound]",,,,,,,,80,,,,,,,not detectable
"O=C(NO)[C@@H]1CCCC[C@H]1NS(=O)(=O)c1ccc(Oc2ccccc2)cc1 (relative stereo) [compound 2d, (trans)-N-Hydroxy-2-[(4-Phenoxybenzenesulfonyl)amino]cyclohexane-carboxamide]",182 to 184,,,,,,,,,,,,,,
